The source of these data is patent EP1891948A1, “Treatment of neurological and neuropsychological disorders” (Probiodrug AG, priority 2000, dated 2002).

For data set [1] the following is noted: cited from earlier work; for anxiety in the elevated plus-maze and social interaction tests: blockade of amygdala NPY Y1R, low stress conditions, Kask et al., 1998b, Sajdyk, 1999.
The subject of data set [2] is rats. As to conditions: administered into the dorsal periaqueductal gray matter; Kask et al., 1998d; cited from earlier work.
The subject of data set [3] is WistarF/Han (WF) rats. In words: 1h food intake with Y1R antagonist pre-treatment (Example 4). The format is in vivo. As to conditions: i.c.v., BIBP3226 100nmol pre-treatment; isoleucyl thiazolidine 50nmol; NPY 0.8nmol; Fig. 11. As for the experimental part: (§1) Animals. Male WistarF/Han (WF) rats (Central Animal Laboratory, Hannover Medical School, Hannover, Germany, see http://www.mh-hannover.de/institut/tierlabor/wf.htm for details), weighing 330±31 g±SD, were housed in a sound-proof, temperature controlled (24.0±0.5°C) room under specific pathogen free conditions with a 12/12h dark/light cycle (lights on at 07.00 with illumination level of 80 Lux). Food (Altromin lab chow pellets) and tap water were available ad libitum. Under ketamine/xylasine (100/5 mg/kg, i.p.) anesthesia, the rats were fixed in a Kopf stereotaxic frame and implanted with cannulae (Plastic One, Inc., Roanoke, VA, USA) above the lateral ventricle. All research and animal care procedures were approved by the Lower Saxony district government (Hannover, Germany) and followed principles described in the European Community's Council Directive of 24 November 1986 (86/609/EEC).
(§2) Surgery and i.c.v. application. For surgery, rats were anesthetized and prepared with i.c.v. cannulae (coordinates: A:-0.7mm caudal, L:1.4mm lateral to bregma; and V3.2mm ventral to the skull surface; tooth bar +3.0 above ear bars) using standard stereotaxic procedures as described in detail elsewhere (von Hörsten et al., 1998a,b,c). After a 7-day recovery period, successful ventricle cannulation was confirmed by an angiotensin drinking response (von Hörsten et al., 1998a). Rats showing a positive drinking response (n=56) were then habituated to experimental handling by daily sham injections for seven days.
Animals were randomly divided into eight experimental groups (n=6-8/group), which completed one SI test of anxiety: (1) aCSF+aCSF+aCSF; (2) BIBP+aCSF+aCSF; (3) aCSF+isoleucyl thiazolidine+aCSF; (4) BIBP+isoleucyl thiazolidine+aCSF; (5) aCSF+aCSF+NPY; (6) BIBP+aCSF+NPY; (7) aCSF+P32/89+NPY; (8) BIBP+isoleucyl thiazolidine+NPY. Animals in each group were treated in an identical way in each phase, receiving i.c.v. injections -60mins and -55min before behavioral testing. Experiments spanned two nights with groups counterbalances on both dark cycles. The injection cannula was attached to a Hamilton microsyringe with approximately 30cm of polyethylene tubing and all compounds were infused in a total volume of 5.0µl at a rate of 5.0 µl/min using a TSE multichannel infusion pump (Bad Homburg, Germany). The time spent in active social interaction (SI-time), 1h, and 12h food-intake were measured.
Peptides and Antagonist. Rat neuropeptide Y1-36 was obtained from Polypeptide Laboratories (Wolfenbüttel, Germany). The NPY Y1 receptor antagonist BIBP3226 was purchased from American Peptide Company, Sunnyvale, CA, USA (Cat#:60-1-22B). […]
(§3) Statistical analysis. Data obtained from the measures SI time and 1h food intake were analyzed by one-way (factor: "treatment") ANOVA. […]

Data set [4] deals with WistarF/Han (WF) rats. In words: Social interaction (SI) test with Y1R antagonist pre-treatment (Example 4). The data set is classed as in vivo. The note with it: Fig. 10. As for the experimental part:
as §1
Surgery and i.c.v. application. […]
Animals were randomly divided into eight experimental groups (n=6-8/group), which completed one SI test of anxiety: (1) aCSF+aCSF+aCSF; (2) BIBP+aCSF+aCSF; (3) aCSF+isoleucyl thiazolidine+aCSF; (4) BIBP+isoleucyl thiazolidine+aCSF; (5) aCSF+aCSF+NPY; (6) BIBP+aCSF+NPY; (7) aCSF+P32/89+NPY; (8) BIBP+isoleucyl thiazolidine+NPY. […] The time spent in active social interaction (SI-time), 1h, and 12h food-intake were measured. […]
Social interaction (SI) test. […] Behavior was monitored using a video camera placed above the field inside the testing/isolation box. The SI behavior of both rats was recorded on-line from a monitor placed outside on top of the box. The following parameters were scored by an observer (HPN) unaware of the substrain of rats: duration of time spent in sniffing, following, crawling under and over other rats, but not passive body contact (resting, sleeping). […]
as §3

Data set [5] relates to olfactory bulbectomized rats. As to conditions: 7-day i.c.v. administration; Song et al., 1996; cited from earlier work.
In data set [6] the test system is WistarF/Han (WF) rats. As to the kind of experiment: 1h and 12h food intake after combined i.c.v. treatment (Example 3). The format is in vivo. As to conditions: single agents or combination, isoleucyl thiazolidine 5pmol-500nmol, NPY 50pmol-1.6nmol, Fig. 8. As for the experimental part:
as §1, with “330-370g,” for “330±31 g±SD,”
as §2, with “(n=59)” for “(n=56)”
Animals were randomly divided into two sets of four experimental groups (n=5-6/group), which completed different consecutive SI test of anxiety. […] The time spent in active social interaction (SI-time), 1h and 12h food-intake were measured. […]
Statistical analysis. Data from repeated observations (food intake) were analyzed by two-way analyses of variance for repeated measures (ANOVA) (factors: "substrain" and "food intake" as repeated measure). Data obtained from simple measures such as DP IV activity or SI time were analyzed by one-way (factor: "substrain") ANOVA. […]

[7] abbreviates: i.c.v. injection, Kask et al. (1996).

In the case of `NC(=O)NCc1ccc(CNC(=O)[C@@H](CCCN=C(N)N)NC(=O)C(c2ccccc2)c2ccccc2)cc1` [BIB03304], the “anxiety in the elevated plus-maze and social interaction tests” value in data set [1] is given as “did not increase anxiety”.
As to `NC(N)=NCCC[C@@H](NC(=O)C(c1ccccc1)c1ccccc1)C(=O)NCc1ccc(O)cc1` [BIBP3226], in data set [2], the “time spent in active social interaction” value was “decreased”. Also, the “1h feeding under Y1R blockade” value in data set [3] is on record as “only partly affected”. In addition, the “anxiety in the elevated plus-maze and social interaction tests” value in data set [1] is “did not increase anxiety”. For the same compound, in data set [1] (setting [7]), the “effect in the elevated plus-maze test” value was “anxiogenic-like effects” and the locomotor effect result is given as “without any locomotor deficit”. The “effect on isoleucyl thiazolidine-induced potentiation of the NPY mediated anxiolytic-like effect on SI behavior” value in data set [4] (i.c.v. pre-treatment, BIBP3226 100nmol) was “can block”.
For the compound “NPY: Rat neuropeptide Y1-36 obtained from Polypeptide Laboratories”, in data set [3], the “1h feeding under Y1R blockade” value is listed as “only partly mediated by the Y1R”. Moreover, the “behavioral and neurotransmitters deficits” value in data set [5] is given as “attenuated”. Besides, the “anxiolytic-like effect in the SI test under Y1 receptor blockade” value in data set [4] (i.c.v., BIBP3226 100nmol pre-treatment, isoleucyl thiazolidine 50nmol, NPY 0.8nmol) is “antagonized”. Also, the “amount of food eaten within 1h” value in data set [6] is recorded as “"u-shaped" dose-dependent feeding effect”.
